Assay results as given in the OligoGym collection.
Where “and” joins values, the source holds several entries; their conditions need not be identical. Equal entries are not always repeated. After the bases stand the sugars from the 5' end (letter, count) and the backbone: PS all phosphorothioate, else s phosphorothioate and o phosphodiester by linkage. Methylation of C is not given here. e = 2'-O-(2-methoxyethyl) (MOE); k = constrained ethyl (cEt); d = 2'-deoxy (DNA)

Target: IRF4
Conditions: ASO

ATTTCACTGTAGGATT (sugars k3 d10 k3, PS)
target mRNA inhibition (SK-MEL-28, 4 µM): 38%

ATTTTATGGACCACGC (sugars k3 d10 k3, PS)
target mRNA inhibition (SK-MEL-28, 4 µM): 49%

ATTTTCACAAGCTGGG (sugars k3 d10 k3, PS)
target mRNA inhibition (SK-MEL-28, 4 µM): 39%

CAAAAACTTGGGTCAC (sugars k3 d10 k3, PS)
target mRNA inhibition (SK-MEL-28, 4 µM): 20%

CAAAAATGTCCCATCC (sugars k3 d10 k3, PS)
target mRNA inhibition (SK-MEL-28, 4 µM): 19%

CAAAACTACTATTGTG (sugars k3 d10 k3, PS)
target mRNA inhibition (SK-MEL-28, 4 µM): 23%

CAAACCTTAAGCTATT (sugars k3 d10 k3, PS)
target mRNA inhibition (MM.1R, 0.0625 µM): -13% | target mRNA inhibition (MM.1R, 0.25 µM): -5% | target mRNA inhibition (MM.1R, 4 µM): 6%

CAAACTCCTCAGGGAA (sugars k4 d8 k4, PS)
target mRNA inhibition (SK-MEL-28, 4 µM): 17%

CAAAGAGGGTCACAGG (sugars k3 d10 k3, PS)
target mRNA inhibition (SK-MEL-28, 4 µM): 63%

CAAATTCAGGAGAGCC (sugars k3 d10 k3, PS)
target mRNA inhibition (SK-MEL-28, 4 µM): 19%

CAAATTCCCGGAGGAA (sugars k3 d10 k3, PS)
target mRNA inhibition (SK-MEL-28, 4 µM): 5%

CAACAGAGCTGAGAGT (sugars k3 d10 k3, PS)
target mRNA inhibition (SK-MEL-28, 4 µM): 20%

CAACAGTGCCAGAGCA (sugars k3 d10 k3, PS)
target mRNA inhibition (SK-MEL-28, 4 µM): 11%

CAACAGTTCAAGTATT (sugars k3 d10 k3, PS)
target mRNA inhibition (SK-MEL-28, 4 µM): 35%

CAAGACCCCGTATCCC (sugars k3 d10 k3, PS)
target mRNA inhibition (SK-MEL-28, 4 µM): 44%

CAAGCAGTGATGTCAG (sugars kkdddddddddkdkdk, PS)
target mRNA inhibition (MM.1R, 1 µM): 46% and 49%

CAAGCAGTGATGTCAG (sugars kkdddddddddkekek, PS)
target mRNA inhibition (MM.1R, 1 µM): 51% and 52%

CAAGCATAAAAGGTTC (sugars k3 d10 k3, PS)
target mRNA inhibition (SK-MEL-28, 4 µM): 29%

CAAGTAATTTTAAGGC (sugars k3 d10 k3, PS)
target mRNA inhibition (SK-MEL-28, 4 µM): 41%

CAAGTGTCTAAAGTCC (sugars kddddddddddkekek, PS)
target mRNA inhibition (MM.1R, 1 µM): 7% and 12%

CAAGTGTCTAAAGTCC (sugars kdddddddddkekeke, PS)
target mRNA inhibition (MM.1R, 1 µM): 11% and 10%

CAATAATCTCCCAGCA (sugars k3 d10 k3, PS)
target mRNA inhibition (SK-MEL-28, 4 µM): 37%

CAATATGCTTCCAACC (sugars k3 d10 k3, PS)
target mRNA inhibition (SK-MEL-28, 4 µM): -15%

CAATTAGCTCTTCTAT (sugars k3 d10 k3, PS)
target mRNA inhibition (SK-MEL-28, 4 µM): 14%

CAATTTACATCTTACT (sugars k3 d10 k3, PS)
target mRNA inhibition (SK-MEL-28, 4 µM): 21%

CACAACTGCAGTTTGA (sugars k3 d10 k3, PS)
target mRNA inhibition (SK-MEL-28, 4 µM): 14%

CACAAGCAGTGATGTC (sugars k3 d10 k3, PS)
target mRNA inhibition (SK-MEL-28, 4 µM): 60%

CACATAACTCAGGCAA (sugars k3 d10 k3, PS)
target mRNA inhibition (SK-MEL-28, 4 µM): 37%

CACATCAATGTTTTAG (sugars k3 d10 k3, PS)
target mRNA inhibition (H929, 0.04 µM): 14% | target mRNA inhibition (KMS11, 0.2 µM): 61% and 78% | target mRNA inhibition (MM.1R, 0.0625 µM): 48% | target mRNA inhibition (MM.1R, 0.25 µM): 62% | target mRNA inhibition (MM.1R, 1 µM): 66% and 75% and 72% | target mRNA inhibition (MM.1R, 4 µM): 89%

CACATTAAAGGGTAAG (sugars k3 d10 k3, PS)
target mRNA inhibition (SK-MEL-28, 4 µM): -1%

CACCAGGAAACCGCTG (sugars k3 d10 k3, PS)
target mRNA inhibition (SK-MEL-28, 4 µM): 15%

CACCCACACAAGTCTT (sugars k4 d8 k4, PS)
target mRNA inhibition (SK-MEL-28, 4 µM): 14%

CACGAAACACAGTCTG (sugars k3 d10 k3, PS)
target mRNA inhibition (SK-MEL-28, 4 µM): 52%

CACGAAGATTCAAAAG (sugars k3 d10 k3, PS)
target mRNA inhibition (SK-MEL-28, 4 µM): 10%

CACGAGGCACCGCACT (sugars k3 d10 k3, PS)
target mRNA inhibition (SK-MEL-28, 4 µM): -13%

CACTATGGTAGGAGTG (sugars k3 d10 k3, PS)
target mRNA inhibition (SK-MEL-28, 4 µM): -12%

CACTATTAAGAACTTG (sugars k3 d10 k3, PS)
target mRNA inhibition (SK-MEL-28, 4 µM): 33%

CACTCATCTTGACATT (sugars k3 d10 k3, PS)
target mRNA inhibition (SK-MEL-28, 4 µM): 36%

CACTTGTCTTGGGTGG (sugars k3 d10 k3, PS)
target mRNA inhibition (SK-MEL-28, 4 µM): 45%

CACTTTAAAAGTTGAC (sugars k3 d10 k3, PS)
target mRNA inhibition (SK-MEL-28, 4 µM): 28%

CAGAAATCACGAGGTT (sugars k3 d10 k3, PS)
target mRNA inhibition (MM.1R, 1 µM): 25%

CAGAAGATCTCTACTG (sugars k3 d10 k3, PS)
target mRNA inhibition (SK-MEL-28, 4 µM): 12%

CAGACCTTATGCTTGG (sugars k3 d10 k3, PS)
target mRNA inhibition (SK-MEL-28, 4 µM): 10%

CAGAGACGCGGTGAGA (sugars k3 d10 k3, PS)
target mRNA inhibition (SK-MEL-28, 4 µM): -61%

CAGAGCTCCGGAGTCA (sugars k3 d10 k3, PS)
target mRNA inhibition (MM.1R, 1 µM): -6%

CAGCAAGTGTCTTCCA (sugars k3 d10 k3, PS)
target mRNA inhibition (SK-MEL-28, 4 µM): 64%

CAGCATGAGCTCGGTC (sugars k3 d10 k3, PS)
target mRNA inhibition (MM.1R, 1 µM): 22%

CAGCATTGGACCCACG (sugars k3 d10 k3, PS)
target mRNA inhibition (MM.1R, 1 µM): 4%

CAGTACAGTCCACTCC (sugars k3 d10 k3, PS)
target mRNA inhibition (MM.1R, 1 µM): 5%

CAGTCTCAAAAACGGG (sugars k3 d10 k3, PS)
target mRNA inhibition (SK-MEL-28, 4 µM): 51%

CAGTGACTTGCATCCA (sugars kkdddddddddekeke, PS)
target mRNA inhibition (MM.1R, 1 µM): 34%

CAGTGACTTGCATCCA (sugars kkdddddddddkdkdk, PS)
target mRNA inhibition (MM.1R, 1 µM): 36%

CAGTGATGTCAGGTTT (sugars k2 d9 e3 k2, PS)
target mRNA inhibition (MM.1R, 0.074 µM): 0% | target mRNA inhibition (MM.1R, 0.222 µM): 12% | target mRNA inhibition (MM.1R, 0.666 µM): 34% | target mRNA inhibition (MM.1R, 1 µM): 56% | target mRNA inhibition (MM.1R, 2 µM): 57%

CAGTTGTAAATGAGTC (sugars k3 d9 k3 e1, PS)
target mRNA inhibition (MM.1R, 0.074 µM): 26% | target mRNA inhibition (MM.1R, 0.222 µM): 42% | target mRNA inhibition (MM.1R, 0.666 µM): 65% | target mRNA inhibition (MM.1R, 1 µM): 68% | target mRNA inhibition (MM.1R, 2 µM): 84%

CAGTTGTAAATGAGTC (sugars k3 d10 k3, PS)
target mRNA inhibition (SK-MEL-28, 4 µM): 89% and 86%

CATAGCTAGTTCATTC (sugars k3 d10 k3, PS)
target mRNA inhibition (SK-MEL-28, 4 µM): 35%

CATATTCCAACAGGCG (sugars k3 d10 k3, PS)
target mRNA inhibition (MM.1R, 1 µM): -1%

CATCACTCTAGTCAGT (sugars k3 d10 k3, PS)
target mRNA inhibition (SK-MEL-28, 4 µM): 59%

CATCACTTGGTCAATT (sugars k3 d10 k3, PS)
target mRNA inhibition (SK-MEL-28, 4 µM): 29%

CATCATGTAGTTGTGA (sugars k3 d10 k3, PS)
target mRNA inhibition (SK-MEL-28, 4 µM): 41%

CATGAAATCCAAGGTA (sugars k3 d10 k3, PS)
target mRNA inhibition (SK-MEL-28, 4 µM): 49%

CATGAGGGTGACACAC (sugars k3 d10 k3, PS)
target mRNA inhibition (SK-MEL-28, 4 µM): 47%

CATGATGTATACCAAC (sugars k3 d10 k3, PS)
target mRNA inhibition (SK-MEL-28, 4 µM): 51%

CATGGTATTTTTCCGT (sugars k3 d10 k3, PS)
target mRNA inhibition (MM.1R, 0.0625 µM): 4% | target mRNA inhibition (MM.1R, 0.25 µM): 36% | target mRNA inhibition (MM.1R, 1 µM): 38% and 48% | target mRNA inhibition (MM.1R, 4 µM): 66%

CATGGTTACTAATTCC (sugars k3 d10 k3, PS)
target mRNA inhibition (MM.1R, 1 µM): 25%

CATGTAAAGTCTGCTG (sugars k3 d10 k3, PS)
target mRNA inhibition (SK-MEL-28, 4 µM): 58%

CATTACTAGATTGTAG (sugars k3 d10 k3, PS)
target mRNA inhibition (SK-MEL-28, 4 µM): 9%

CATTACTTAGACATTA (sugars k3 d10 k3, PS)
target mRNA inhibition (SK-MEL-28, 4 µM): 19%

CATTTACTGTTACCGA (sugars k3 d10 k3, PS)
target mRNA inhibition (MM.1R, 0.074 µM): -14% | target mRNA inhibition (MM.1R, 0.222 µM): 0% | target mRNA inhibition (MM.1R, 0.666 µM): -9% | target mRNA inhibition (MM.1R, 2 µM): 10% | target mRNA inhibition (SK-MEL-28, 4 µM): 79%

CCAAACCTTAAGCTAT (sugars k3 d10 k3, PS)
target mRNA inhibition (MM.1R, 1 µM): 18% and 34%

CCAAAGGGTTCAGTGT (sugars k3 d10 k3, PS)
target mRNA inhibition (SK-MEL-28, 4 µM): 26%

CCAAATGTGGAGCTCC (sugars k3 d10 k3, PS)
target mRNA inhibition (SK-MEL-28, 4 µM): 23%

CCAAATTCCCGGAGGA (sugars k3 d10 k3, PS)
target mRNA inhibition (MM.1R, 1 µM): -25%
